# Test system: hESCs
# Assay: Conversion of hPSCs into NSCs (OCT4, SOX1, PAX6 expression) in dSMADi cultures
# Format: cell-based, human
# Method: To explore the activities of RA on hESCs directed to adopt a neural fate in response to dSMADi^14, we treated cultures with 200 nM all-trans RA for the first 1, 2, 3 or 4 days of differentiation (RA^1D, RA^2D, RA^3D, RA^4D) (FIG. 1a) and monitored fate and identity of cells at different stages by immunoblotting, quantitative immunocytochemistry, qPCR or RNA-sequencing (RNA-seq). […] Induction of SOX1 and PAX6 at low levels occurred at 3 DDC (FIG. 1b). OCT4 and SOX1 were co-expressed by cells between 3-4 DDC (FIG. 1b, c; FIG. 7a (Supplementary FIG. 1a)) showing that the conversion of hPSCs into NSCs in response to dSMADi-treatment encompass a protracted time-window over which expression of pluripotency- and neural-specific genes overlap. […] By 7 DDC, SOX1 and neural marker NESTIN were expressed at similar levels in dSMADi-only and in dSMADi+RA^2D cultures (FIG. 1d). […] Endodermal or mesodermal lineage markers were not expressed (FIG. 7b (Supplementary FIG. 1b)). In dSMADi+RA^2D conditions, prompt suppression of OCT4 and fast upregulation of SOX1 was attained within a concentration range of RA between 50-500 nM (FIG. 1g). […] Thus, combining dSMADi treatment with exposure of hPSCs to RA for 48 hours or longer promotes a rapid and switch-like transition from pluripotency into a NSC-state.
# 80-90% confluent PSCs cultures were rinsed twice with PBS, treated with EDTA (0.5 mM in PBS) for 5-7 min, and resuspended into single cell suspension in PBS. Cells were spin down at 400 g and resuspended in N2B27 medium (DMEM/F12: Neurobasal (1:1), 0.5×N2 and 0.5×B27 (plus vitamin A) supplements, 1×nonessential amino acids, 1% GlutaMAX, 55 μM β-mercaptoethanol-all from Thermo Fisher Scientific) containing 5 μM SB431542 (Miltenyi Biotech) and 2.5 μM DMH1 (Santa Cruz Biotech) (dual SMAD inhibition), and 10 μM ROCK inhibitor (for the first 48 hours after seeding). Cells were seeded on VTN (2 μg/cm^2) and Fibronectin (FN) (2 μg/cm^2) (Sigma) coated surface at a density of 60,000-80,000 cells/cm^2 for RA- and RA-analogues based experiments, and 20,000 cells/cm^2 for CHIR99021 experiments. […]
compound,measurement,setting,value
"CC1=C(/C=C/C(C)=C/C=C/C(C)=C/C(=O)O)C(C)(C)CCC1 [RA, all-trans retinoic acid]",rapid OCT4 suppression and fast upregulation of SOX1,200 nM RA for one day (dSMADi+RA^1D),not sufficient to promote rapid OCT4 suppression nor fast upregulation of SOX1
same,OCT4 expression,dSMADi and 200 nM RA for two days or longer,expression of OCT4 had essentially been extinguished by 3 DDC
same,concentration range of RA giving prompt suppression of OCT4 and fast upregulation of SOX1,"dSMADi+RA^2D, 3 DDC",50 to 500 nM

# Source: patent US20230233617A1, “METHODS FOR DIFFERENTIATING STEM CELLS INTO DOPAMINERGIC PROGENITOR CELLS” (JZ CELL TECHNOLOGIES AB, priority 2020, published 2023)
